From patent US20190110981A1, “Cannabinoid Patch” (LIFE TECH GLOBAL, LLC, priority 2017, published 2019)

How the values were obtained:
[1] = as measured at room temperature; cited from earlier work
[2] = In vitro transdermal flux, human cadaver skin and Franz diffusion cell; type: in vitro ADME; conditions: for Flux over the course of about 20 hours: monolithic PIB patch with oil containing CBD/THC 1:1, Franz diffusion cell (FIG. 3)
Excerpt: FIG. 1. In vitro cumulative flux (micrograms/cm^2) of cannabidiol (CBD) through skin versus time (hours).
FIG. 2. In vitro flux of tetrahydrocannabinol (THC) from ethanol/water, at each of the indicated ratios of ethanol/water.
The disclosure provides a graph of transdermal flux (FIG. 3). […] Alternatively, the oil contains CBD/THC in a 1:1 ratio (wt./wt.).
The following concerns reservoir patches. The composition inside the reservoir can have the consistency of a paste, but in an alternative embodiment, it can have the consistency of an oil, or it can have the consistency of a liquid, or it can have the consistency of a slurry. Parameters for FIG. 2 are as follows. Flux was allowed to occur for 24 hours, and FIG. 2 provides the value at 24 hours, […] The layers are 30 cm square and the hydrogel is one cm cubed or one milliliter. The layers have microporous membrane with […] pore size. The layers have occlusive heat seal around edges. There is a protective release liner. The embodiment can be made with or without silicone adhesive.

Structure (SMILES) | pKa [1] | Effect of enhancer on transdermal delivery of CBD from PIB [2] | Flux over the course of about 20 hours ([2]; human cadaver skin) | also measured
O=S(=O)(O)CCNC1CCCCC1 [CHES] | 9.5 | – | – | –
CCCCCCCCCCCCN1CCCCCC1=O [azone, 1-dodecylazacycloheptane-2-one] | – | double | – | –
CCCCCc1cc(O)c2c(c1)OC(C)(C)[C@@H]1CCC(C)=C[C@@H]21 [THC, delta-9-tetrahydrocannabinol] | – | – | at least 1.0 micrograms per cm^2 | THC flux by solvent in reservoir patch ([2]; THC oil mixed with ethanol and with EtOH/water of different ratios): highest flux from pure ethanol; THC flux from ethanol in reservoir patch relative to monolithic patch ([2]; reservoir patch, THC oil mixed with ethanol (FIG. 2)): 4 times; Cumulative flux of THC ([2]; reservoir patch, saturated ethanol/water about 60/40 with 25% THC oil, value at 24 hours (FIG. 2)): at least 50 micrograms THC per cm^2
C=C(C)[C@@H]1CCC(C)=C[C@H]1c1c(O)cc(CCCCC)cc1O [CBD, cannabidiol] | – | – | at least 4 micrograms per cm^2 | Flux of CBD from matrix with hemp oil of 92% CBD relative to adhesive matrix with crystalline CBD ([2]; PIB monolithic patch, 15% CBD oil vs 15% crystalline CBD (FIG. 1)): about 5 times; Cumulative flux of CBD ([2]; over ten hours, dermal patch with PIB and about 15% CBD oil, human cadaver skin, Franz diffusion cell): at least 20 micrograms CBD per cm^2
O=S(=O)(O)CCN1CCN(CCS(=O)(=O)O)CC1 [PIPES] | 6.8 | – | – | –
CCCCCCCC/C=C\CCCCCCCC(=O)O [oleic acid] | – | double | – | –
